Usually Ki stands for the dissociation constant of the complex between target and ligand, obtained from inhibition or displacement. The term IC50 denotes the concentration at which inhibition is half-maximal. The term EC50 denotes the concentration giving half of the maximal effect.

Structures are written as SMILES. Where only a bound is given, the exact number is not on record here.

Data set [1] addresses T1, recombinant human JAK1 kinase domain protein (Residues 854-1154) (Homo sapiens, UniProt P23458).
T1 construct: human JAK1 kinase domain protein (Residues 854-1154); purchased Proteros Biostructures GmbH (Martinsried, Germany); host or cells: insect cells
Kind of data set: JAK1 biochemical assay (microfluidic mobility shift, peptide phosphorylation). The note with it: 25 μM ATP, 1 nM total JAK1; read-out: Enzyme JAK1 Ki. The text has this:
JAK1 and JAK2 Biochemical Assays

For data set [2], the system named is JAK1: IL-13-stimulated STAT6 phosphorylation in BEAS-2B cells. In words: P-STAT6 BEAS-2B+IL-13 Cell Assay. It counts as cell-based, human. The following applies: Homo sapiens, BEAS-2B, IL-13 stimulation, read-out: Cellular JAK1 PSTAT6 BEAS2B + IL13 IC50. The procedure: P-STAT6 BEAS-2B+IL-13 Cell Assay
In order to study the effect of JAK1 inhibitors in a cell line that is relevant to the cell biology of human asthma, an IL-13-stimulated STAT6 phosphorylation assay in the human lung bronchial epithelial BEAS-2B cell line was developed.
BEAS-2B cells (ATCC® CRL-9609™) were grown in Bronchial Epithelial Growth Medium (BEGM) (Lonza Catalog No. CC-3170; Walkersville, Md.; or PromoCell Catalog No. C-21060; Heidelberg, Germany). Test compound stock solutions (0.5 mM in DMSO) were serially diluted 1:2 in DMSO to generate a 10-point concentration curve (at 500×test concentration), which was further diluted by a 50-fold dilution step in BEGM to generate a 10× concentration curve (in 2% DMSO). Cells were plated at 100,000 cells/well in 200 μL of BEGM in 96-well plates and incubated for 48 hours at 37° C. in a humidified incubator. Medium was aspirated from the cells and replaced with 70 μL of fresh BEGM. Diluted test compound (10 μL; or 2% DMSO in assay medium) was added to the cells, and the plates were incubated for 1 hour at 37° C. in a humidified incubator. Twenty μL of 250 ng/mL human recombinant IL-13 (Bio Techne Catalog No. 213-ILB) was then added to the cells and incubated for 15 minutes at 37° C. Medium was aspirated from the cells and 60 μL of ice-cold 1×cell lysis buffer (Cell Signaling Technologies; Catalog No. 9803S) containing 1 mM PMSF was added to the cells. Assay plates were incubated at −80° C. for at least 1 hour. P-STAT6 was measured by coating GAR plates (MSD; Catalog No. L45RA-1) with rabbit anti-human total STAT6 antibody (Cell Signaling Technologies; Catalog No. 9362S), incubating the cell lysates in the coated plates overnight at 4° C., and then detecting with mouse anti-phospho-STAT6 (Tyr641) Clone 16E12 antibody (Millipore; Catalog No. 05-590, custom labeled by MSD with SULFO-tag) using standard MSD plate processing, washing, and detection protocols. Plates were read on the MESO SECTOR S600. Data Analysis
Data analysis was performed by subtracting negative control values from all wells and determining percent of control using the positive control values; the IC50 was determined with a four-parameter logistic fit model as shown in Equation 4.

The nature of data set [3]: Cell cytotoxicity assay HEK-293T (CellTiter-Glo, 72 hours). It is filed as cell-based. The note with it: human, HEK-293T cells, read-out: Cytotox K-293 EC50. The text has this:
(§1) Cytotoxicity assays. Hepatocyte toxicity, general cytotoxicity or cytotoxicity of unknown mechanism is an undesirable feature for a potential drug, including inhaled drugs. It may be of benefit for an inhaled JAK1 or JAK1/JAK2 inhibitor to have low intrinsic cytotoxicity against various cell types. Typical cell types used to assess cytotoxicity include both primary cells such as human hepatocytes, and proliferating established cell lines such as Jurkat and HEK-293. […] Methods of measuring cytotoxicity are known in the art. In some embodiments, compounds described herein were tested as follows:
(§2) (a) Jurkat and HEK293T cells were maintained at a sub confluent density in T175 flasks. Cells were plated at 450 cells/45 μl medium in Greiner 384 well black/clear tissue culture treated plates. (Greiner Catalog #781091). After dispensing cells, plates were equilibrated at room temperature for 30 minutes. After 30 minutes at room temperature, cells were incubated overnight at 37° C. in a CO2 and humidity controlled incubator. The following day, cells were treated with compounds diluted in 100% DMSO (final DMSO concentration on cells=0.5%) with a 10 point dose-response curve with a top concentration of 50 μM. Cells and compounds were then incubated for 72 hours overnight at 37° C. in a CO2 and humidity controlled incubator. After 72 hours of incubation, viability was measured using CellTiterGlo® (Promega Catalog #G7572) to all wells. After incubation at room temperature for 20 minutes, plates were read on EnVision™ (Perkin Elmer Life Sciences) using luminescence mode;
(§3) A549 (ATCC® CCL-185™), Jurkat clone E6-1 (ATCC® TIB-152™) and HEK-293T (ATCC® CRL-1573™) cells maintained at a sub-confluent density in T175 flasks were used. Cells in exponential growth phase were plated (450 cells in 45 μL of medium) in Greiner 384-well black/clear tissue culture treated plates (Greiner Catalog No. 781091). After dispensing cells, plates were allowed to equilibrate at room temperature for 30 minutes, after which time the cell plates were placed overnight in a 37° C. CO2 and humidity-controlled incubator. The following day, cells were treated with test agent diluted in 100% DMSO (0.5% final DMSO concentration on cells) with a 10-point titration and a top concentration of 50 μM. Cells and compounds were then incubated for 72 hours in a 37° C. CO2 and humidity-controlled incubator, after which time cell viability was measured by adding CellTiter-Glo® (Promega G7572) reagent to all wells. Plates were incubated at room temperature for 20 minutes and then the well luminescence was read on an EnVision plate reader (Perkin Elmer Life Sciences).
On the technique in general: ATP-based viability assays read luminescence as a measure of living cells.

A short description of data set [4]: Cell cytotoxicity assay Jurkat (CellTiter-Glo, 72 hours). It is filed as cell-based. The note with it: human, Jurkat clone E6-1 cells, read-out: Cytotox Jurkat EC50.
Description: as §1, §2, §3

Data set [5] can be described thus: Cell cytotoxicity assay A549 (CellTiter-Glo, 72 hours). It counts as cell-based. The following applies: human, A549 cells, read-out: Cytotox A549 EC50. The protocol:
as §3

The target of data set [6] is Recombinant human JAK2 kinase domain protein (Residues 812-1132) (Homo sapiens, UniProt O60674). In words: JAK2 biochemical assay (microfluidic mobility shift, peptide phosphorylation). The note with it: Enzyme JAK2 Ki (nM), 25 μM ATP, 0.2 nM total JAK2.
[7] abbreviates: Table 3, 72 hours, top concentration of 50 μM.
Setting [8] is: Table 4, methyl-desmethyl analog pairs.

T1 sequence (P23458 854-1154): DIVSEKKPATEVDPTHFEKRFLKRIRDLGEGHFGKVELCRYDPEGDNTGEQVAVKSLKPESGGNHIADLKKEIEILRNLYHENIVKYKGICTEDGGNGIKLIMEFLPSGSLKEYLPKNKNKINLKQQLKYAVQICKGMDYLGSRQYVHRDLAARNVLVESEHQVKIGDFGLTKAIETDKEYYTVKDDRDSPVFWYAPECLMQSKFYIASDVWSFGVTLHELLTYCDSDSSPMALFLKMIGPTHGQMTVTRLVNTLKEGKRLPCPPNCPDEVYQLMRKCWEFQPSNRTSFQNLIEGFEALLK
Chain of Recombinant human JAK2 kinase domain protein (Residues 812-1132) (O60674 812-1132): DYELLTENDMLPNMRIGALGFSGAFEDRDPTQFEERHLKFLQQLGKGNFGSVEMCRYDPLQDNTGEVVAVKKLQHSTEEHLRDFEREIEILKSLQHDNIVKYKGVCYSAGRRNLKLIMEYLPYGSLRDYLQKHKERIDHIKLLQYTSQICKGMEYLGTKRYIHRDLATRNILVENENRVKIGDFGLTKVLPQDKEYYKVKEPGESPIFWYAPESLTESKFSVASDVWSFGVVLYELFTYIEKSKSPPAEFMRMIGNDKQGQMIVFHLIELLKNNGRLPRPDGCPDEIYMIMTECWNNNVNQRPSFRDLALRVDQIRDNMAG

Consider `Cn1cc(NC(=O)c2cnn3cccnc23)c(-c2cc(S(=O)(=O)c3cccc(O)c3)ccc2OC(F)F)n1` [Example 11, N-[3-[2-(difluoromethoxy)-5-(3-hydroxyphenyl)sulfonyl-phenyl]-1-methyl-pyrazol-4-yl]pyrazolo[1,5-a]pyrimidine-3-carboxamide], for which the Ki in data set [1] worked out at 0.21 nM; in data set [6], 0.12 nM. The IC50 in data set [2] was determined as 17 nM. For the same compound, the EC50 at 72 h was found to be 3700 nM in data set [3] (setting [7]), 5500 nM in data set [4] (setting [7]) and 6400 nM in data set [5] (setting [7]).

For the compound `CC(O)C(C)S(=O)(=O)c1ccc(OC(F)F)c(-c2nn(C)cc2NC(=O)c2cnn3cccnc23)c1` (single isomer, unassigned) [Example 68, N-[3-[2-(difluoromethoxy)-5-(2-hydroxy-1-methyl-propyl)sulfonyl-phenyl]-1-methyl-pyrazol-4-yl]pyrazolo[1,5-a]pyrimidine-3-carboxamide], the Ki in data set [1] stood at 0.6 nM; in data set [6], 0.25 nM. The IC50 in data set [2] stood at 62 nM. For the same compound, the EC50 at 72 h in data set [3] (setting [7]) was 19000 nM; in data set [4] (setting [7]), 32000 nM; in data set [5] (setting [7]), not below 50000 nM.

`Cn1cc(NC(=O)c2cnn3cccnc23)c(-c2cc(S(=O)(=O)C(F)F)ccc2OC(F)F)n1` [Example 9, N-[3-[2-(difluoromethoxy)-5-(difluoromethylsulfonyl)phenyl]-1-methyl-pyrazol-4-yl]pyrazolo[1,5-a]pyrimidine-3-carboxamide]: the Ki was 0.27 nM in data set [1] and 0.18 nM in data set [6]. Besides, in data set [2], the IC50 was 15 nM. Moreover, the EC50 at 72 h worked out at 2200 nM in data set [3] (setting [7]); 2200 nM in data set [3] (setting [8]); 3500 nM in data set [4] (setting [7]); 3500 nM in data set [4] (setting [8]); 1660 nM in data set [5] (setting [7]); 1660 nM in data set [5] (setting [8]).

Consider `CN1CCC[C@H]1Cn1cc(NC(=O)c2cnn3cccnc23)c(-c2cc(S(C)(=O)=O)ccc2OC(F)F)n1` [Example 72, N-[3-[2-(difluoromethoxy)-5-methylsulfonyl-phenyl]-1-[[(2S)-1-methylpyrrolidin-2-yl]methyl]pyrazol-4-yl]pyrazolo[1,5-a]pyrimidine-3-carboxamide], for which the Ki in data set [1] came to 0.94 nM; in data set [6], 1.5 nM. Further, in data set [2], the IC50 is 31 nM. In addition, the EC50 at 72 h is 20000 nM in data set [3] (setting [7]), 49000 nM in data set [4] (setting [7]) and not below 50000 nM in data set [5] (setting [7]).

For `CS(=O)(=O)c1ccc(OC(F)F)c(-c2n[nH]cc2NC(=O)c2cnn3cccnc23)c1` [Example 4 in WO201708 9390, reference compound], the EC50 at 72 h in data set [3] (setting [8]) was 2100 nM; in data set [4] (setting [8]), 6200 nM; in data set [5] (setting [8]) it was 22000 nM.

As for `CCS(=O)(=O)c1ccc(OC(F)F)c(-c2nn(C)cc2NC(=O)c2cnn3cccnc23)c1` [Example 6, N-[3-[2-(difluoromethoxy)-5-ethylsulfonyl-phenyl]-1-methyl-pyrazol-4-yl]pyrazolo[1,5-a]pyrimidine-3-carboxamide], the inhibitory constant (Ki) in data set [1] amounted to 0.48 nM. Besides, in data set [2], the IC50 is 18 nM. The EC50 at 72 h in data set [3] (setting [7]) came out at 6050 nM; in data set [3] (setting [8]), 6050 nM; in data set [4] (setting [7]), 21500 nM; in data set [4] (setting [8]), 21500 nM; in data set [5] (setting [7]), 6750 nM; in data set [5] (setting [8]), 6750 nM.

With `CCS(=O)(=O)c1ccc(OC(F)F)c(-c2n[nH]cc2NC(=O)c2cnn3cccnc23)c1` [Example. 192 in WO201708 9390, reference compound], the 50% effective concentration (EC50) at 72 h was 437 nM in data set [3] (setting [8]), 790 nM in data set [4] (setting [8]) and 2370 nM in data set [5] (setting [8]).

These data come from patent US11453671B2, “Pyrazolopyrimidine inhibitors of JAK kinases and uses thereof” (Genentech, Inc., priority 2020, dated 2022).
